# According to patent US10206399B2, “Herbicidal composition comprising uracil compound as active ingredient” (Dongbu Farm Hannong Co., Ltd., priority 2012, dated 2019):
# Where two headings read alike, the source gives them in different places.
# Columns and labels:
# Aeschynomene indica = assay: whole plant or invertebrate
# From the text: (§1) X is % damage by uracil compound (a) of formula 1 at the rate of application of p kg/ha; Y is % damage by conventional herbicidal compound (b) at the rate of application of q kg/ha; and E is the expected damage caused by compounds (a) and (b) at a rate of application of p and q kg/ha.
# (§2) The expected activity for a given combination of two herbicides can be calculated using equation 1 above.
# Echinochloa crus = conditions: for Echinochloa crus mortality, measured value: 20 days after treatment; for plant mortality, measured value: Echinochloa crus
# From the text: as §1, §2
# Abutilon theophrasti = assay: whole plant or invertebrate
# From the text: as §1, §2
# Digitaria sanguinalis = conditions: for Digitaria sanguinalis mortality, measured value: 20 days after treatment; for plant mortality, measured value: Digitaria sanguinalis
# From the text: as §1, §2
# Xanthium spinosum = assay: whole plant or invertebrate
# From the text: as §1, §2
# [1] = read-out: Data (measured value) Aeschynomene indica, 25 g/ha
# [2] = read-out: Data (measured value) Aeschynomene indica, 50 g/ha
# [3] = read-out: Data (measured value) Aeschynomene indica, 100 g/ha
# [4] = read-out: Data (measured value) Abutilon theophrasti, 25 g/ha
# [5] = read-out: Data (measured value) Abutilon theophrasti, 50 g/ha
# [6] = read-out: Data (measured value) Abutilon theophrasti, 100 g/ha
# [7] = read-out: Data (measured value) Xanthium spinosum, 25 g/ha
# [8] = read-out: Data (measured value) Xanthium spinosum, 50 g/ha
# [9] = read-out: Data (measured value) Xanthium spinosum, 100 g/ha
# [10] = 480 h, read-out: Aeschynomene indica mortality, measured value
# [11] = 480 h, read-out: Abutilon theophrasti mortality, measured value
# [12] = 480 h, read-out: Xanthium spinosum mortality, measured value
# [13] = read-out: plant mortality, measured value, 125 g/ha
# [14] = read-out: plant mortality, measured value, 250 g/ha
# [15] = read-out: plant mortality, measured value, 500 g/ha
# [16] = read-out: plant mortality, measured value, 25 g/ha
# [17] = read-out: plant mortality, measured value, 50 g/ha
# [18] = read-out: plant mortality, measured value, 100 g/ha
smiles,measurement,setting,value
COc1c(Cl)ccc(Cl)c1C(=O)O [Dicamba],pest or weed control at 75 g/ha,"Aeschynomene indica; read-out: Data (measured value) Aeschynomene indica, 75 g/ha",7%
same,pest or weed control at 150 g/ha,"Aeschynomene indica; read-out: Data (measured value) Aeschynomene indica, 150 g/ha",23%
same,pest or weed control at 300 g/ha,"Aeschynomene indica; read-out: Data (measured value) Aeschynomene indica, 300 g/ha",51%
same,Data (measured value) Echinochloa crus,Echinochloa crus; 75 g/ha,0
same,Data (measured value) Echinochloa crus,Echinochloa crus; 150 g/ha,0
same,Data (measured value) Echinochloa crus,Echinochloa crus; 300 g/ha,0
same,pest or weed control at 75 g/ha,"Abutilon theophrasti; read-out: Data (measured value) Abutilon theophrasti, 75 g/ha",9%
same,pest or weed control at 150 g/ha,"Abutilon theophrasti; read-out: Data (measured value) Abutilon theophrasti, 150 g/ha",20%
same,pest or weed control at 300 g/ha,"Abutilon theophrasti; read-out: Data (measured value) Abutilon theophrasti, 300 g/ha",46%
same,Data (measured value) Digitaria sanguinalis,Digitaria sanguinalis; 75 g/ha,0
same,Data (measured value) Digitaria sanguinalis,Digitaria sanguinalis; 150 g/ha,0
same,Data (measured value) Digitaria sanguinalis,Digitaria sanguinalis; 300 g/ha,0
same,pest or weed control at 75 g/ha,"Xanthium spinosum; read-out: Data (measured value) Xanthium spinosum, 75 g/ha",13%
same,pest or weed control at 150 g/ha,"Xanthium spinosum; read-out: Data (measured value) Xanthium spinosum, 150 g/ha",29%
same,pest or weed control at 300 g/ha,"Xanthium spinosum; read-out: Data (measured value) Xanthium spinosum, 300 g/ha",62%
Nc1c(Cl)c(Cl)nc(C(=O)O)c1Cl [Picloram],pest or weed control at 25 g/ha,Aeschynomene indica; [1],9%
same,pest or weed control at 50 g/ha,Aeschynomene indica; [2],21%
same,pest or weed control at 100 g/ha,Aeschynomene indica; [3],52%
same,Data (measured value) Echinochloa crus,Echinochloa crus; 25 g/ha,0
same,Data (measured value) Echinochloa crus,Echinochloa crus; 50 g/ha,0
same,Data (measured value) Echinochloa crus,Echinochloa crus; 100 g/ha,0
same,pest or weed control at 25 g/ha,Abutilon theophrasti; [4],9%
same,pest or weed control at 50 g/ha,Abutilon theophrasti; [5],28%
same,pest or weed control at 100 g/ha,Abutilon theophrasti; [6],65%
same,Data (measured value) Digitaria sanguinalis,Digitaria sanguinalis; 25 g/ha,0
same,Data (measured value) Digitaria sanguinalis,Digitaria sanguinalis; 50 g/ha,0
same,Data (measured value) Digitaria sanguinalis,Digitaria sanguinalis; 100 g/ha,0
same,pest or weed control at 25 g/ha,Xanthium spinosum; [7],9%
same,pest or weed control at 50 g/ha,Xanthium spinosum; [8],26%
same,pest or weed control at 100 g/ha,Xanthium spinosum; [9],56%
"CC(Oc1ccc(Oc2ncc(C(F)(F)F)cc2Cl)cc1)C(=O)O (stereo not drawn) [Haloxyfop, reference compound]",mortality at 12.5 g/ha,Aeschynomene indica; [10],0%
same,mortality at 25 g/ha,Aeschynomene indica; [10],0%
same,mortality at 50 g/ha,Aeschynomene indica; [10],0%
same,"Echinochloa crus mortality, measured value",Echinochloa crus; 12.5 g/ha,11%
same,"Echinochloa crus mortality, measured value",Echinochloa crus; 25 g/ha,28%
same,"Echinochloa crus mortality, measured value",Echinochloa crus; 50 g/ha,58%
same,mortality at 12.5 g/ha,Abutilon theophrasti; [11],0%
same,mortality at 25 g/ha,Abutilon theophrasti; [11],0%
same,mortality at 50 g/ha,Abutilon theophrasti; [11],0%
same,"Digitaria sanguinalis mortality, measured value",Digitaria sanguinalis; 12.5 g/ha,14%
same,"Digitaria sanguinalis mortality, measured value",Digitaria sanguinalis; 25 g/ha,29%
same,"Digitaria sanguinalis mortality, measured value",Digitaria sanguinalis; 50 g/ha,57%
same,mortality at 12.5 g/ha,Xanthium spinosum; [12],0%
same,mortality at 25 g/ha,Xanthium spinosum; [12],0%
same,mortality at 50 g/ha,Xanthium spinosum; [12],0%
CCc1cc(C)cc(CC)c1-c1c(OC(=O)C(C)(C)C)n2n(c1=O)CCOCC2 [Pinoxaden],pest or weed control at 6.25 g/ha,"Aeschynomene indica; read-out: Data (measured value) Aeschynomene indica, 6.25 g/ha",0%
same,pest or weed control at 12.5 g/ha,"Aeschynomene indica; read-out: Data (measured value) Aeschynomene indica, 12.5 g/ha",0%
same,pest or weed control at 25 g/ha,Aeschynomene indica; [1],0%
same,Data (measured value) Echinochloa crus,Echinochloa crus; 6.25 g/ha,10
same,Data (measured value) Echinochloa crus,Echinochloa crus; 12.5 g/ha,29
same,Data (measured value) Echinochloa crus,Echinochloa crus; 25 g/ha,63
same,pest or weed control at 6.25 g/ha,"Abutilon theophrasti; read-out: Data (measured value) Abutilon theophrasti, 6.25 g/ha",0%
same,pest or weed control at 12.5 g/ha,"Abutilon theophrasti; read-out: Data (measured value) Abutilon theophrasti, 12.5 g/ha",0%
same,pest or weed control at 25 g/ha,Abutilon theophrasti; [4],0%
same,Data (measured value) Digitaria sanguinalis,Digitaria sanguinalis; 6.25 g/ha,12
same,Data (measured value) Digitaria sanguinalis,Digitaria sanguinalis; 12.5 g/ha,26
same,Data (measured value) Digitaria sanguinalis,Digitaria sanguinalis; 25 g/ha,57
same,pest or weed control at 6.25 g/ha,"Xanthium spinosum; read-out: Data (measured value) Xanthium spinosum, 6.25 g/ha",0%
same,pest or weed control at 12.5 g/ha,"Xanthium spinosum; read-out: Data (measured value) Xanthium spinosum, 12.5 g/ha",0%
same,pest or weed control at 25 g/ha,Xanthium spinosum; [7],0%
CC(C)N1C(=O)c2ccccc2NS1(=O)=O [Bentazone],pest or weed control at 125 g/ha,Aeschynomene indica; [13],10%
same,pest or weed control at 250 g/ha,Aeschynomene indica; [14],22%
same,pest or weed control at 500 g/ha,Aeschynomene indica; [15],52%
same,"plant mortality, measured value",Echinochloa crus; 125 g/ha,0
same,"plant mortality, measured value",Echinochloa crus; 250 g/ha,0
same,"plant mortality, measured value",Echinochloa crus; 500 g/ha,0
same,pest or weed control at 125 g/ha,Abutilon theophrasti; [13],9%
same,pest or weed control at 250 g/ha,Abutilon theophrasti; [14],22%
same,pest or weed control at 500 g/ha,Abutilon theophrasti; [15],49%
same,"plant mortality, measured value",Digitaria sanguinalis; 125 g/ha,0
same,"plant mortality, measured value",Digitaria sanguinalis; 250 g/ha,0
same,"plant mortality, measured value",Digitaria sanguinalis; 500 g/ha,0
same,pest or weed control at 125 g/ha,Xanthium spinosum; [13],8%
same,pest or weed control at 250 g/ha,Xanthium spinosum; [14],18%
same,pest or weed control at 500 g/ha,Xanthium spinosum; [15],45%
CCSC(C)CC1CC(=O)C(/C(CC)=N/OC/C=C/Cl)=C(O)C1 (stereo not drawn) [Clethodim],pest or weed control at 25 g/ha,Aeschynomene indica; [1],0%
same,pest or weed control at 50 g/ha,Aeschynomene indica; [2],0%
same,pest or weed control at 100 g/ha,Aeschynomene indica; [3],0%
same,pest or weed control at 25 g/ha,Aeschynomene indica; [16],0%
same,pest or weed control at 50 g/ha,Aeschynomene indica; [17],0%
same,pest or weed control at 100 g/ha,Aeschynomene indica; [18],0%
same,Data (measured value) Echinochloa crus,Echinochloa crus; 25 g/ha,11
same,"plant mortality, measured value",Echinochloa crus; 25 g/ha,11
same,Data (measured value) Echinochloa crus,Echinochloa crus; 50 g/ha,31
same,"plant mortality, measured value",Echinochloa crus; 50 g/ha,31
same,Data (measured value) Echinochloa crus,Echinochloa crus; 100 g/ha,65
same,"plant mortality, measured value",Echinochloa crus; 100 g/ha,65
same,pest or weed control at 25 g/ha,Abutilon theophrasti; [4],0%
same,pest or weed control at 50 g/ha,Abutilon theophrasti; [5],0%
same,pest or weed control at 100 g/ha,Abutilon theophrasti; [6],0%
same,pest or weed control at 25 g/ha,Abutilon theophrasti; [16],0%
same,pest or weed control at 50 g/ha,Abutilon theophrasti; [17],0%
same,pest or weed control at 100 g/ha,Abutilon theophrasti; [18],0%
same,Data (measured value) Digitaria sanguinalis,Digitaria sanguinalis; 25 g/ha,6
same,"plant mortality, measured value",Digitaria sanguinalis; 25 g/ha,6
same,Data (measured value) Digitaria sanguinalis,Digitaria sanguinalis; 50 g/ha,19
same,"plant mortality, measured value",Digitaria sanguinalis; 50 g/ha,19
same,Data (measured value) Digitaria sanguinalis,Digitaria sanguinalis; 100 g/ha,45
same,"plant mortality, measured value",Digitaria sanguinalis; 100 g/ha,45
same,pest or weed control at 25 g/ha,Xanthium spinosum; [7],0%
same,pest or weed control at 50 g/ha,Xanthium spinosum; [8],0%
same,pest or weed control at 100 g/ha,Xanthium spinosum; [9],0%
same,pest or weed control at 25 g/ha,Xanthium spinosum; [16],0%
same,pest or weed control at 50 g/ha,Xanthium spinosum; [17],0%
same,pest or weed control at 100 g/ha,Xanthium spinosum; [18],0%
